# Source: the kinase profiling compilation of Christmann-Franck et al. (2016)
# How the values were obtained:
# Assay in all cases: KINOMEscan competition binding
# Details in all cases: compound 10.0 µM
# TTK (human) = TTK (human) (UniProt P33981)
# MYLK (human) = MYLK (human) (UniProt Q15746)
# STK33 (human) = STK33 (human) (UniProt Q9BYT3)
# SLK (human) = SLK (human) (UniProt Q9H2G2)
# CAMKK2 (human) = CAMKK2 (human) (UniProt Q96RR4)
# CDC42BPG (human) = CDC42BPG (human) (UniProt Q6DT37)
# PLK1 (human) = PLK1 (human) (UniProt P53350)
# Sequence of PLK1 (human) (P53350 whole entry, looked up): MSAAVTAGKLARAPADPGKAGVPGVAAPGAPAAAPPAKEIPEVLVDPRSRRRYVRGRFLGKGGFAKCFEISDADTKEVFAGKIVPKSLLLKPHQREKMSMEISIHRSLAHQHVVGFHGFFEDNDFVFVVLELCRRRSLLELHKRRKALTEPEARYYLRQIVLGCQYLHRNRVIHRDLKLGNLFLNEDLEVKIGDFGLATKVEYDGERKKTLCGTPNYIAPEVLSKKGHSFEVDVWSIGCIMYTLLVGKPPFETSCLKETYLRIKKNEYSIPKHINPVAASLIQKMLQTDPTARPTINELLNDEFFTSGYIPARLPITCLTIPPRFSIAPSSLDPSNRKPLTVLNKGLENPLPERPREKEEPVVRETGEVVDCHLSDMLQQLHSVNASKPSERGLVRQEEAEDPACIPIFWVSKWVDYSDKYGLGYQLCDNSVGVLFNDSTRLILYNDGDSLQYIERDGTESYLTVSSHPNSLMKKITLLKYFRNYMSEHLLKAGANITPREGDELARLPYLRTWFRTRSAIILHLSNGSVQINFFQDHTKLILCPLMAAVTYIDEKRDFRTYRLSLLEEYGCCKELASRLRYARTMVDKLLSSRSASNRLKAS
# DCLK1 (human) = DCLK1 (human) (UniProt O15075)
# DCLK2 (human) = DCLK2 (human) (UniProt Q8N568)
# PLK3 (human) = PLK3 (human) (UniProt Q9H4B4)
# Sequence of PLK3 (human) (Q9H4B4 whole entry, looked up): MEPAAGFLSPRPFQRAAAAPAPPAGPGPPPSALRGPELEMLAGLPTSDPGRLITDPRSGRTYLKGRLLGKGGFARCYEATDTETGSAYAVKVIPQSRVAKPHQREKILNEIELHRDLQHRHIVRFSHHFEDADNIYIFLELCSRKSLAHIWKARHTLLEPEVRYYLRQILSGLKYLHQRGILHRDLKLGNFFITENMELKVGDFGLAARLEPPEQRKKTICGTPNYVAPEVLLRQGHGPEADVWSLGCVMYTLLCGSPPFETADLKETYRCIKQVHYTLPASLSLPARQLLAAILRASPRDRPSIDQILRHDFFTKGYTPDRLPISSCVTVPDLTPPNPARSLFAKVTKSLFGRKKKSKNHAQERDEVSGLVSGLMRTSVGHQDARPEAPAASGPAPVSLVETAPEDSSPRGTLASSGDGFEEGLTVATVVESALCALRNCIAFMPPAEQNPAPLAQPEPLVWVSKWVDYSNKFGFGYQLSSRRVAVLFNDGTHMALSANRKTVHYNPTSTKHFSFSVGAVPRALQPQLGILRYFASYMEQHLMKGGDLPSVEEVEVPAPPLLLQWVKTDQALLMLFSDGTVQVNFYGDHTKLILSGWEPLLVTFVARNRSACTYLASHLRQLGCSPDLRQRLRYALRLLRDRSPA
# MAPK7 (human) = MAPK7 (human) (UniProt Q13164)
# Sequence of MAPK7 (human) (Q13164 whole entry, looked up): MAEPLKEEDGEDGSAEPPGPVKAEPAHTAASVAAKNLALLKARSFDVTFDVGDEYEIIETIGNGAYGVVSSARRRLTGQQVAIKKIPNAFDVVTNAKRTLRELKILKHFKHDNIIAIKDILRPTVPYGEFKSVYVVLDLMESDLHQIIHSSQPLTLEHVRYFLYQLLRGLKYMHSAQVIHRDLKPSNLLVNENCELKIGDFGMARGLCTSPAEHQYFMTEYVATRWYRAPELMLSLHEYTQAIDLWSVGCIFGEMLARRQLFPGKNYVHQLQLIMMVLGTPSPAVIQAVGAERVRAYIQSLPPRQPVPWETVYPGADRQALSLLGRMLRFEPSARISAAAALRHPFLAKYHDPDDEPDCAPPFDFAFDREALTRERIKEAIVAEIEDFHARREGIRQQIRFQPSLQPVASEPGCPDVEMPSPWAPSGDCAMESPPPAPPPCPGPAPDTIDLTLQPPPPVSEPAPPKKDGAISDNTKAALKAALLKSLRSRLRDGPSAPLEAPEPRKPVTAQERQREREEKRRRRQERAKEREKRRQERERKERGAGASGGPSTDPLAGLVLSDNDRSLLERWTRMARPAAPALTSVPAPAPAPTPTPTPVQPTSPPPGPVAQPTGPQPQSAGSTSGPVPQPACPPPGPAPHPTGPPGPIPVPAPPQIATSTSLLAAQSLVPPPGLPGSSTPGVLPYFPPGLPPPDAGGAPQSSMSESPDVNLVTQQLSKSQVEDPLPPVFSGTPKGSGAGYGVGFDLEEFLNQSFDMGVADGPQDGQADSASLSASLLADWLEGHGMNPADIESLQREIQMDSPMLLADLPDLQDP
# ROS1 (human) = ROS1 (human) (UniProt P08922)
# LIMK2 (human) = LIMK2 (human) (UniProt P53671)
# TNK1 (human) = TNK1 (human) (UniProt Q13470)
# Sequence of TNK1 (human) (Q13470 whole entry, looked up): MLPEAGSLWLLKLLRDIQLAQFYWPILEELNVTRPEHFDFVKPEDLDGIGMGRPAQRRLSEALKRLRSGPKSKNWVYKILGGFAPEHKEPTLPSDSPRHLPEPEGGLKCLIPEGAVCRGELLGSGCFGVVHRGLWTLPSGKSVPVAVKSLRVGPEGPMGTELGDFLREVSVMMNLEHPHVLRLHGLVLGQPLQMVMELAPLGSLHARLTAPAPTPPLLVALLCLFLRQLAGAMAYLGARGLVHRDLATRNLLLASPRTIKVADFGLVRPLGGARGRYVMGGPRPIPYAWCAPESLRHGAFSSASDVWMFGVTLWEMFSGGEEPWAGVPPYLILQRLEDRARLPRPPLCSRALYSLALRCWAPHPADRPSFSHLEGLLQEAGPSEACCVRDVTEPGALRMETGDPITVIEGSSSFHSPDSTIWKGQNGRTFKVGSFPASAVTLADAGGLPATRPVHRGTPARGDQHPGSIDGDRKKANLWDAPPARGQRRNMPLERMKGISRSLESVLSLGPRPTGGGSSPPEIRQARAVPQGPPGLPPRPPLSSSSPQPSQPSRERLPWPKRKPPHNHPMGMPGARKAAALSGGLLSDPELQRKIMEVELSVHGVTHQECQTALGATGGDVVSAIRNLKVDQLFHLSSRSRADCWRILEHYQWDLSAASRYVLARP
# GAK (human) = GAK (human) (UniProt O14976)
# Sequence of GAK (human) (O14976 whole entry, looked up): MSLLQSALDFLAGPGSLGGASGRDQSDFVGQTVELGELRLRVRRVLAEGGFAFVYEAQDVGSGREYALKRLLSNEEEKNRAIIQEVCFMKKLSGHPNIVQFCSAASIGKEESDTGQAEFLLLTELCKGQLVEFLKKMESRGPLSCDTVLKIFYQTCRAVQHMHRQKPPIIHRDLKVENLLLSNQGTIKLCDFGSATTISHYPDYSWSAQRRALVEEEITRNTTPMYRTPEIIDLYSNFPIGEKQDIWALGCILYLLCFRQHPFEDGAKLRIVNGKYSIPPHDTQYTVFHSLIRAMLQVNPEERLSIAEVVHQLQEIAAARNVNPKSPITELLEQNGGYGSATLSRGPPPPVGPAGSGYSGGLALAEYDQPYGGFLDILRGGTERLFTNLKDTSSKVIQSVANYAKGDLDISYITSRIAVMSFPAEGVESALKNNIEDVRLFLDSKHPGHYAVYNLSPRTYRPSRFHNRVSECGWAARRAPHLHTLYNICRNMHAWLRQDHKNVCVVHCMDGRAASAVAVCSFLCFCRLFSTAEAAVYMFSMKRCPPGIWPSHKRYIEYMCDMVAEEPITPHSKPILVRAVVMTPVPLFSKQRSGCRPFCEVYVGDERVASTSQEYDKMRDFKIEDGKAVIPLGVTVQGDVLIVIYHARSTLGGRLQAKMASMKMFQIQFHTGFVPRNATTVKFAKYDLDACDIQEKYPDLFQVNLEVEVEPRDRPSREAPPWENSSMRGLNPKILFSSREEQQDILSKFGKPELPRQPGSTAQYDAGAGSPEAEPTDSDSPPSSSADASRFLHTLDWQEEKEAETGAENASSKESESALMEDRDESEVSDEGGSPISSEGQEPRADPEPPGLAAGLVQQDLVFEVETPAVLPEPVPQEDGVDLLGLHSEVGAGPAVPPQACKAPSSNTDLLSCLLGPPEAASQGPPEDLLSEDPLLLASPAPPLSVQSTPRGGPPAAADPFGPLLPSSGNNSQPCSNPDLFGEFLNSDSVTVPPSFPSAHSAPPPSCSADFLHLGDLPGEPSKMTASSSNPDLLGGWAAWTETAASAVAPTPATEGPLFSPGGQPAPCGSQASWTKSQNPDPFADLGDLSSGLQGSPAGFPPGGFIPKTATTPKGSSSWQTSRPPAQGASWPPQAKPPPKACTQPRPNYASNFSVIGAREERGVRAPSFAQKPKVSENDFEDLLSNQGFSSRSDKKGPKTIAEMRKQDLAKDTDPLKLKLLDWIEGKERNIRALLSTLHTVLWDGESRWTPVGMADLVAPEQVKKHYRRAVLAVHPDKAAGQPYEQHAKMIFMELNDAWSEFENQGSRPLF
# IGF1R (human) = IGF1R (human) (UniProt P08069)
# MYO3B (human) = MYO3B (human) (UniProt Q8WXR4)
# MAP2K3 (human) = MAP2K3 (human) (UniProt P46734)
# LATS1 (human) = LATS1 (human) (UniProt O95835)
# PAK1 (human) = PAK1 (human) (UniProt Q13153)
# [1] = molecular target: TYK2 JH2 pseudokinase (human) (UniProt P29597)
# RIOK2 (human) = RIOK2 (human) (UniProt Q9BVS4)
# [2] = molecular target: TYK2 JH1 catalytic (human) (UniProt P29597)
# RIOK1 (human) = RIOK1 (human) (UniProt Q9BRS2)
# MELK (human) = MELK (human) (UniProt Q14680)
# MINK1 (human) = MINK1 (human) (UniProt Q8N4C8)
# AURKC (human) = AURKC (human) (UniProt Q9UQB9)
# PLK4 (human) = PLK4 (human) (UniProt O00444)
# NEK5 (human) = NEK5 (human) (UniProt Q6P3R8)
# PIK3CG (human) = PIK3CG (human) (UniProt P48736)
# MYLK2 (human) = MYLK2 (human) (UniProt Q9H1R3)
# ADCK4 (human) = ADCK4 (human) (UniProt Q96D53)
# TNIK (human) = TNIK (human) (UniProt Q9UKE5)
# ACVR1 (human) = ACVR1 (human) (UniProt Q04771)
# AURKB (human) = AURKB (human) (UniProt Q96GD4)
# NEK2 (human) = NEK2 (human) (UniProt P51955)
# IRAK3 (human) = IRAK3 (human) (UniProt Q9Y616)
# AAK1 (human) = AAK1 (human) (UniProt Q2M2I8)
# STK16 (human) = STK16 (human) (UniProt O75716)
# MYLK3 (human) = MYLK3 (human) (UniProt Q32MK0)
# CSNK1G3 (human) = CSNK1G3 (human) (UniProt Q9Y6M4)
# RPS6KA1 KD1 (human) = RPS6KA1 KD1 (human) (UniProt Q15418)
# PIP5K1A (human) = PIP5K1A (human) (UniProt Q99755)
# NLK (human) = NLK (human) (UniProt Q9UBE8)
# MAP4K2 (human) = MAP4K2 (human) (UniProt Q12851)
# NEK9 (human) = NEK9 (human) (UniProt Q8TD19)
# MYLK4 (human) = MYLK4 (human) (UniProt Q86YV6)
# SRPK3 (human) = SRPK3 (human) (UniProt Q9UPE1)
# SGK110 (human) = SGK110 (human) (UniProt P0C264)
# CDK7 (human) = CDK7 (human) (UniProt P50613)
# LCK (human) = LCK (human) (UniProt P06239)
# TXK (human) = TXK (human) (UniProt P42681)
# BMP2K (human) = BMP2K (human) (UniProt Q9NSY1)
# PIP4K2B (human) = PIP4K2B (human) (UniProt P78356)
# LATS2 (human) = LATS2 (human) (UniProt Q9NRM7)
# [3] = molecular target: JAK2 JH1 catalytic (human) (UniProt O60674)
# CSNK1E (human) = CSNK1E (human) (UniProt P49674)
# AURKA (human) = AURKA (human) (UniProt O14965)
# MAP4K4 (human) = MAP4K4 (human) (UniProt O95819)
# FYN (human) = FYN (human) (UniProt P06241)
# STK17A (human) = STK17A (human) (UniProt Q9UEE5)
# RIOK3 (human) = RIOK3 (human) (UniProt O14730)
# MERTK (human) = MERTK (human) (UniProt Q12866)
# CSNK1D (human) = CSNK1D (human) (UniProt P48730)
# Sequence of TTK (human) (P33981 whole entry, looked up): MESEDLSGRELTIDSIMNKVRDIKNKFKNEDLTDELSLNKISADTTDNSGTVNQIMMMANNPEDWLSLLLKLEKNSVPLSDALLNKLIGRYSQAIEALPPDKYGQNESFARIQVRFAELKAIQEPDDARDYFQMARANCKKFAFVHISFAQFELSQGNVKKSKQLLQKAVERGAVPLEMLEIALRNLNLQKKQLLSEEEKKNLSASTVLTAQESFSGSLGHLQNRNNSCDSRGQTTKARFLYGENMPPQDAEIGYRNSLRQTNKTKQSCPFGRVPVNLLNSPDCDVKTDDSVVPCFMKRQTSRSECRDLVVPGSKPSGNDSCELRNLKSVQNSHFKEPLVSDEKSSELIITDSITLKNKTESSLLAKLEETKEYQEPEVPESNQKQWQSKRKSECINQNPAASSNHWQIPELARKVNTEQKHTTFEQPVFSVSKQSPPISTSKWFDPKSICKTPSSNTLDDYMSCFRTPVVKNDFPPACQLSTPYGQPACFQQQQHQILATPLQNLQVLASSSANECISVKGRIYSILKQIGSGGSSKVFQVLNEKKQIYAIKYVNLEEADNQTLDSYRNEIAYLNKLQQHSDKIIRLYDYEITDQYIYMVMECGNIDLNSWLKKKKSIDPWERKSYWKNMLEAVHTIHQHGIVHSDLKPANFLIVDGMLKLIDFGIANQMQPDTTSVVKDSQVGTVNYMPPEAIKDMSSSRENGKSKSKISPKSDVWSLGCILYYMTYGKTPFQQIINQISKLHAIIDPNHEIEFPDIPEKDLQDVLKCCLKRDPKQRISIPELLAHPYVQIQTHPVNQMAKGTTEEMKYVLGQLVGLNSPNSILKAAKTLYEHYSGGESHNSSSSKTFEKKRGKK
smiles,measurement,setting,value
COc1cc(C(=O)NC2CCN(C)CC2)ccc1Nc1ncc2c(n1)N(C1CCCC1)[C@@H]1CCC[C@@H]1C(=O)N2C,"kinase still bound, per cent of control",TTK (human),28%
same,"kinase still bound, per cent of control",MYLK (human),2.6%
same,"kinase still bound, per cent of control",STK33 (human),11%
same,"kinase still bound, per cent of control",SLK (human),5.8%
same,"kinase still bound, per cent of control",CAMKK2 (human),22%
same,"kinase still bound, per cent of control",CDC42BPG (human),12%
same,"kinase still bound, per cent of control",PLK1 (human),15%
same,"kinase still bound, per cent of control",DCLK1 (human),2.4%
same,"kinase still bound, per cent of control",DCLK2 (human),2.8%
same,"kinase still bound, per cent of control",PLK3 (human),0%
same,"kinase still bound, per cent of control",MAPK7 (human),0.6%
same,"kinase still bound, per cent of control",ROS1 (human),31%
same,"kinase still bound, per cent of control",LIMK2 (human),8.3%
same,"kinase still bound, per cent of control",TNK1 (human),21%
same,"kinase still bound, per cent of control",GAK (human),13%
O=C1NC(=O)C(=Cc2ccc(-c3ccc([N+](=O)[O-])cc3)o2)C(=O)N1,"kinase still bound, per cent of control",IGF1R (human),34%
same,"kinase still bound, per cent of control",MYO3B (human),28%
same,"kinase still bound, per cent of control",MAP2K3 (human),15%
same,"kinase still bound, per cent of control",LATS1 (human),0%
same,"kinase still bound, per cent of control",PAK1 (human),17%
CN1C(=O)[C@H]2CCC[C@H]2N(C2CCCC2)c2nc(Nc3ccc4ncccc4c3)ncc21,"kinase still bound, per cent of control",TTK (human),26%
same,"kinase still bound, per cent of control",[1],31%
same,"kinase still bound, per cent of control",RIOK2 (human),0.35%
same,"kinase still bound, per cent of control",[2],25%
same,"kinase still bound, per cent of control",RIOK1 (human),7.2%
same,"kinase still bound, per cent of control",MELK (human),26%
same,"kinase still bound, per cent of control",MINK1 (human),1.6%
same,"kinase still bound, per cent of control",AURKC (human),4.6%
same,"kinase still bound, per cent of control",PLK4 (human),1.9%
same,"kinase still bound, per cent of control",SLK (human),18%
same,"kinase still bound, per cent of control",NEK5 (human),11%
same,"kinase still bound, per cent of control",PIK3CG (human),34%
same,"kinase still bound, per cent of control",MYLK2 (human),8.3%
same,"kinase still bound, per cent of control",ADCK4 (human),10%
same,"kinase still bound, per cent of control",TNIK (human),14%
same,"kinase still bound, per cent of control",ACVR1 (human),16%
same,"kinase still bound, per cent of control",AURKB (human),21%
same,"kinase still bound, per cent of control",NEK2 (human),31%
same,"kinase still bound, per cent of control",IRAK3 (human),16%
same,"kinase still bound, per cent of control",AAK1 (human),12%
same,"kinase still bound, per cent of control",STK16 (human),2.2%
same,"kinase still bound, per cent of control",PLK1 (human),0.25%
same,"kinase still bound, per cent of control",MYLK3 (human),7.6%
same,"kinase still bound, per cent of control",DCLK1 (human),12%
same,"kinase still bound, per cent of control",CSNK1G3 (human),20%
same,"kinase still bound, per cent of control",RPS6KA1 KD1 (human),27%
same,"kinase still bound, per cent of control",PIP5K1A (human),19%
same,"kinase still bound, per cent of control",NLK (human),12%
same,"kinase still bound, per cent of control",MAP4K2 (human),23%
same,"kinase still bound, per cent of control",NEK9 (human),30%
same,"kinase still bound, per cent of control",MYLK4 (human),33%
same,"kinase still bound, per cent of control",PLK3 (human),10%
same,"kinase still bound, per cent of control",SRPK3 (human),20%
same,"kinase still bound, per cent of control",SGK110 (human),30%
same,"kinase still bound, per cent of control",MAPK7 (human),0.25%
same,"kinase still bound, per cent of control",CDK7 (human),30%
same,"kinase still bound, per cent of control",LCK (human),19%
same,"kinase still bound, per cent of control",TXK (human),34%
same,"kinase still bound, per cent of control",BMP2K (human),2.1%
same,"kinase still bound, per cent of control",PIP4K2B (human),13%
same,"kinase still bound, per cent of control",LATS2 (human),14%
same,"kinase still bound, per cent of control",[3],15%
same,"kinase still bound, per cent of control",CSNK1E (human),0.15%
same,"kinase still bound, per cent of control",AURKA (human),11%
same,"kinase still bound, per cent of control",MAP4K4 (human),0.8%
same,"kinase still bound, per cent of control",FYN (human),34%
same,"kinase still bound, per cent of control",STK17A (human),3.3%
same,"kinase still bound, per cent of control",RIOK3 (human),7.6%
same,"kinase still bound, per cent of control",MERTK (human),28%
same,"kinase still bound, per cent of control",TNK1 (human),1.6%
same,"kinase still bound, per cent of control",GAK (human),1.8%
same,"kinase still bound, per cent of control",CSNK1D (human),4.3%
